Laboratory results: patent publication US7053107B2, “Indazole compounds and pharmaceutical compositions for inhibiting protein kinases, and methods for their use” (Agouron Pharmaceuticals, Inc., priority 2002, dated 2006)

Key:
FGF-R1 = biological target: T1, FGF-R1 (Homo sapiens, UniProt P11362, C488A/C584S/L457V); test: Fibroblast Growth Factor (FGF-R) spectrophotometric assay; type: biochemical; conditions: 1 μM compound; read-out: FGF-P % inhibit @1 μM
T1 construct: starting from the endogenous methionine residue 456 to glutamate 766; made in house; host or cells: baculovirus vector expression system
Summary of the method: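 Baculovirus-expressed human FGF-R1 kinase domain (Met456–Glu766; L457V/C488A/C584S), 50 nM, with 2 mM ATP and 15 mM poly(E4Y1) in HEPES pH 7.5. ADP formation coupled via PK/LDH to NADH oxidation, read as A340 decrease. Ki from activity across varying compound concentrations.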

HUVEC = test: bFGF Huvec; type: cell-based; conditions: Homo sapiens
KDR = biological target: T2, KDR (Homo sapiens, UniProt P35968); test: KDR (VEGFR2) Phosphorylation in PAE-KDR Cells Assay; type: cell-based; conditions: PAE cells overexpressing human KDR
T2 construct: expressed in transfected cells; host or cells: porcine aorta endothelial (PAE) cells
Protocol: This assay determines the ability of a test compound to inhibit the autophosphorylation of KDR in porcine aorta endothelial (PAE)-KDR cells. PAE cells that overexpress human KDR were used in this assay. The cells were cultured in Ham's F12 media supplemented with 10% fetal bovine serum (FBS) and 400 μg/mL G418. Thirty thousands cells were seeded into each well of a 96-well plate in 75 μL of growth media and allowed to attach for 6 hours at 37° C. Cells were then exposed to the starvation media (Ham's F12 media supplemented with 0.1% FBS) for 16 hours. After the starvation period was over, 10 μL of test agent in 5% DMSO in starvation media were added to the test wells and 10 μL of the vehicle (5% DMSO in starvation media) were added into the control wells. The final DMSO concentration in each well was 0.5%. Plates were incubated at […] for 1 hour and the cells were then stimulated with 500 ng/ml VEGF (commercially available from R & D System) in the presence of 2 mM Na3VO4 for 8 minutes. The cells were washed once with 1 mm Na3VO4 in HBSS and lysed by adding 50 μL per well of lysis buffer. […] Phosphorylation status was assessed by spectrophotometer reading at 450 nm. IC50 values were calculated by curve fitting using a four-parameter analysis.

[1] = biological target: T3, unphosphorylated VEGF-R2Δ50 (Homo sapiens, UniProt P35968, DEL940-989/E990V); test: VEGF-R2 coupled spectrophotometric assay, unphosphorylated construct (FLVK); type: biochemical; conditions: % inhibition at 50 nM compound; read-out: FLVK Ki % inh @ 50 nM
T3 construct: VEGF-R2Δ50 contains residues 806–939 and 990–1171; made in house; host or cells: baculovirus/insect cell system
Summary of the method: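 Human VEGF-R2Δ50 kinase (residues 806–939/990–1171, baculovirus-expressed; autophosphorylated form pre-treated with 3 mM ATP, 4° C, 2 h), 5–40 nM, with poly(E4Y1) in 200 mM HEPES pH 7.5; ADP coupled via PK/LDH to NADH oxidation at 340 nm. Phosphorylated: 1 mM ATP, 5.1 mM poly(E4Y1), 25 mM MgCl2; unphosphorylated: 3 mM ATP, 20 mM poly(E4Y1), 60 mM MgCl2, 2 mM MnCl2. Ki from activity at varying compound levels.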

[2] = system: human umbilical vein endothelial cells (HUVEC); test: HUVEC Proliferation Assay (VEGF-stimulated); type: cell-based
Summary of the method: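 Serum-starved HUVEC (passage 3–4, F12K + 1% FBS, 24 h) pretreated 1 h with compound (final DMSO 0.1%), then stimulated with 6 ng/mL VEGF for 72 h. Proliferation read by 4 h MTT reduction, absorbance 595. IC50 from seven-point 0.5-log curves in triplicate; screening % inhibition normalised to VEGF-only and starvation controls.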

[3] = biological target: T4, phosphorylated VEGF-R2Δ50 (Homo sapiens, UniProt P35968, DEL940-989/E990V); test: VEGF-R2 coupled spectrophotometric (FLVK-P) assay, phosphorylated construct; type: biochemical; conditions: Ki (nM)
T4 construct: VEGF-R2Δ50 contains residues 806–939 and 990–1171; made in house; host or cells: baculovirus/insect cell system
Source text: This construct determines the ability of a test compound to inhibit tyrosine kinase activity. A construct (VEGF-R2Δ50) of the cytosolic domain of human vascular endothelial growth factor receptor 2 (VEGF-R2) lacking the 50 central residues of the 68 residues of the kinase insert domain was expressed in a baculovirus/insect cell system. Of the 1356 residues of full-length VEGF-R2, VEGF-R2Δ50 contains residues 806–939 and 990–1171, and also one point mutation (E99OV) within the kinase insert domain relative to wild-type VEGF-R2. Autophosphorylation of the purified construct was performed by incubation of the enzyme at a concentration of 4 μM in the presence of 3 mM ATP and 40 mM MgCl2 in 100 mM HEPES, pH 7.5, containing 5% glycerol and 5 mM DTT, at 4° C. for 2 h. […] See Parast et al., Biochemistry, 37,16788–16801 (1998).
The production of ADP from ATP that accompanies phosphoryl transfer was coupled to oxidation of NADH using phosphoenolpyruvate (PEP) and a system having pyruvate kinase (PK) and lactic dehydrogenase (LDH). The oxidation of NADH was monitored by following the decrease of absorbance at 340 nm (e340=6.22 cm^−1 mM^−1) using a Beckman DU 650 spectrophotometer. […] Ki values were determined by measuring enzyme activity in the presence of varying concentrations of test compounds. The data were analyzed using Enzyme Kinetic and Kaleidagraph software.

T2 sequence (P35968 20-1356): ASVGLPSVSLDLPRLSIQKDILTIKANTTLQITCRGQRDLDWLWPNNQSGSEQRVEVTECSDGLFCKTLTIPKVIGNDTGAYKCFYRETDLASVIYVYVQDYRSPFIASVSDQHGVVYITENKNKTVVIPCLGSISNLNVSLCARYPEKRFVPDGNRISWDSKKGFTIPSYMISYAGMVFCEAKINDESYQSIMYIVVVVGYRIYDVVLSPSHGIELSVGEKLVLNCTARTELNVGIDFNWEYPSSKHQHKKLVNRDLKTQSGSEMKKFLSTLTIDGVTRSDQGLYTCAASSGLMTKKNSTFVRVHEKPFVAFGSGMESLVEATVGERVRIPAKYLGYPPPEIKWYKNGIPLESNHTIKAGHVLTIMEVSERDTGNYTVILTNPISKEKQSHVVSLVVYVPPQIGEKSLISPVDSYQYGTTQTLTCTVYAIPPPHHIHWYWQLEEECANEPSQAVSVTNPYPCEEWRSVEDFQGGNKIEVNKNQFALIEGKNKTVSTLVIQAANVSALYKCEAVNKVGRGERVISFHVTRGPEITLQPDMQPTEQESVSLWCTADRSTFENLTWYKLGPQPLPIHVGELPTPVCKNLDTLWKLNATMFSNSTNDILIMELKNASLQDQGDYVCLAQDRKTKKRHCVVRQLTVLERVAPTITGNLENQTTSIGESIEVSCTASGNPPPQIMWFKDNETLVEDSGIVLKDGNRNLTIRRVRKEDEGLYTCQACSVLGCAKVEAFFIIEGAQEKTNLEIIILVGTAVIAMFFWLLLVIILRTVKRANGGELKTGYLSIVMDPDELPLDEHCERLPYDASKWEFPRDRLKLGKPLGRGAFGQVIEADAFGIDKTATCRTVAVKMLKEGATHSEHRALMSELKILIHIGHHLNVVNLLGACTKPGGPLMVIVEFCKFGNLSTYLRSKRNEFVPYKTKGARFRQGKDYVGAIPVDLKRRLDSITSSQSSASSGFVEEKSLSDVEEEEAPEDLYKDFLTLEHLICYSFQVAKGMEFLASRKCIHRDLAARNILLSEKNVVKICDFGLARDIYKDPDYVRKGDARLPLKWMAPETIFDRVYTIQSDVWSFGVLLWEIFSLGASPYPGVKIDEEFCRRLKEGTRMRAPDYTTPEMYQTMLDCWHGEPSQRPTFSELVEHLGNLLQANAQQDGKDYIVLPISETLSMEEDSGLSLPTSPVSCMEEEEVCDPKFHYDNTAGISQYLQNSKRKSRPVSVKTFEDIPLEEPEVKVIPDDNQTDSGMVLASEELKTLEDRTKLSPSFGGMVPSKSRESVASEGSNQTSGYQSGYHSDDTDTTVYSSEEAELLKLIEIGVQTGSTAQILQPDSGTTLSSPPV
T1 sequence (P11362 456-766 L457V/C488A/C584S): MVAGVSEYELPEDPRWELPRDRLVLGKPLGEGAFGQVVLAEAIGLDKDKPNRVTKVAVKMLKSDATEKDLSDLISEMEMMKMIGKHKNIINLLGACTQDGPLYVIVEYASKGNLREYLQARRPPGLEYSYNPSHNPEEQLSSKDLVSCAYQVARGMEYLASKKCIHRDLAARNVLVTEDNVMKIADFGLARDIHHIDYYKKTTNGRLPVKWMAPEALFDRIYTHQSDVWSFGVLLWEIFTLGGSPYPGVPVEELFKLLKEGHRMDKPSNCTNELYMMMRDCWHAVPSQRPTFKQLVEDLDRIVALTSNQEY
T3 sequence (P35968 with tags, fused parts or gaps DEL940-989/E990V limits assumed): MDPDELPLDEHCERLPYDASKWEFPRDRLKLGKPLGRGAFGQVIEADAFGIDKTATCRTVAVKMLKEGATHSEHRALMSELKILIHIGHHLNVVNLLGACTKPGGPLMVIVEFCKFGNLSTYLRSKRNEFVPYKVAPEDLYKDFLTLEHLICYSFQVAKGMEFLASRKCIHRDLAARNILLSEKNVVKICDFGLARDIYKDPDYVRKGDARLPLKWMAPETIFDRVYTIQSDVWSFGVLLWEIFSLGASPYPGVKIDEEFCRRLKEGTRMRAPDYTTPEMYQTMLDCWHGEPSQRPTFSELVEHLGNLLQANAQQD
T4 sequence (P35968 with tags, fused parts or gaps DEL940-989/E990V limits assumed): as above

Cc1ccnc(/C=C/c2n[nH]c3cc(Nc4ccccc4C(=O)NCC#CC4CC4)ccc23)c1 [Example 36, N-(3Cycloprop-2-ynyl)-2-{3-[(E)-2-(4-methyl-pyridin-2-yl)-vinyl]-1H-indazol-6-ylamino}-benzamide]
inhibition at 1 µM (FGF-R1): 69%
IC50 (HUVEC): 935 nM
IC50 (KDR): 1.62 nM
inhibition at 0.05 µM [1]: 95%
IC50 [2]: 1.67 nM
Ki [3]: 0.3 nM

Cc1ccnc(/C=C/c2n[nH]c3cc(Nc4ccccc4C(=O)NCc4ccccn4)ccc23)c1 [Example 37, 2-{3-[2-(4-Methyl-pyridin-2-yl)-vinyl]-1H-indazol6-ylamino}-N-pyridin-2-ylmethyl-benzamide]
inhibition at 1 µM (FGF-R1): 45%
IC50 (KDR): 0.76 nM
inhibition at 0.05 µM [1]: 90%
